In this test the test system is carrageenin-induced paw edema. Description: Anti-inflammatory activity: inhibition of carrageenin-induced paw edema in rats. In kind it is in vivo, rat (male, S.D. strain). The note with it: Rattus norvegicus, po, read-out: Inhibition percent of edema; for inhibition in vivo at 100 mg/kg: 100 mg/kg p.o.; for inhibition in vivo at 25 mg/kg: 25 mg/kg p.o.; for inhibition in vivo at 50 mg/kg: 50 mg/kg p.o. Here is the method:
(1) Anti-inflammatory activity: inhibition of carrageenin-induced paw edema in rats The compound was tested for the above activity according to the method of C.A. Winter et al. [Proc. Soc. […] One hour after the test compound was orally given to the animal, 0.1 ml of 1% carrageenin solution was subcutaneously injected into the right footpad. The paw volume was measured 3 hours thereafter, and the resulting increase in the volume was calculated based on the volume before the injection of carrageenin solution. The percent inhibition was determined in comparison with the increase in the control group.
(In general: In the carrageenan paw model, swelling and tenderness develop within hours.)

[1] abbreviates: 1 h before carrageenin, paw volume 3 h after, vs control.

Molecules are shown by their SMILES.

`CC(C)(C)c1cc(Nc2cncc(Cl)n2)cc(C(C)(C)C)c1O` [Compound 25]: the inhibition in vivo at 100 mg/kg under setting [1] amounted to 15%. With `CC(C)(C)c1cc(Nc2ncccn2)cc(C(C)(C)C)c1O` [Compound 13, 2,6-di-tert-butyl-4-[(2-pyrimidinyl)amino]phenol], the inhibition in vivo at 10 mg/kg (10 mg/kg p.o., 1 h before carrageenin, paw volume 3 h after, vs control) was found to be 41%. In the case of `CC(C)(C)c1cc(Nc2cncc[n+]2[O-])cc(C(C)(C)C)c1O` [Compound 64, 2-N-(3,5-di-tert-butyl-4-hydroxyphenyl)aminopyrazine-1-oxide], under setting [1], the inhibition in vivo at 25 mg/kg came out at 31%. For the compound `Cc1cc(Nc2cc(C(C)(C)C)c(O)c(C(C)(C)C)c2)no1` [Compound 50], the inhibition in vivo at 50 mg/kg under setting [1] was determined as 12%. The same measure, in the same setting: to `CC(C)(C)c1cc(Nc2cnccn2)cc(C(C)(C)C)c1O` [Compound 1, 2,6-di-tert-butyl-4-pyrazinylaminophenol] belongs 37%. On to `CC(C)(C)c1cc(Nc2ccnnc2)cc(C(C)(C)C)c1O` [Compound 12, 2,6-di-tert-butyl-4-[(4-pyridazinyl)amino]phenol], for which the inhibition in vivo at 25 mg/kg under setting [1] worked out at 29%. Turning to `CC(C)(C)c1cc(Nc2ccncn2)cc(C(C)(C)C)c1O` [Compound 14, 2,6-di-tert-butyl-4-[(4-pyrimidinyl)amino]phenol], the inhibition in vivo at 50 mg/kg under setting [1] amounted to 30%. For `CC(C)(C)c1cc(Nc2c[nH]nn2)cc(C(C)(C)C)c1O` [Compound 51, 2,6-di-tert-butyl-4-[(1,2,3-triazol-4-yl)amino]phenol], the inhibition in vivo at 100 mg/kg under setting [1] worked out at 42%. As to `COc1ccc(Nc2cc(C(C)(C)C)c(O)c(C(C)(C)C)c2)nn1` [Compound 24, 2,6-di-tert-butyl-4-[(6-methoxy-3-pyridazinyl)amino]phenol], the inhibition in vivo at 25 mg/kg under setting [1] was found to be 31%. With `CC(C)(C)c1cc(Nc2cc(Cl)nnc2Cl)cc(C(C)(C)C)c1O` [Compound 27, 2,6-di-tert-butyl-4-[(3,6-dichloro-4-pyridazinyl)amino]pheonl], the inhibition in vivo at 100 mg/kg under setting [1] was 33%. In the case of `CC(C)(C)c1cc(Nc2ccc(CO)nn2)cc(C(C)(C)C)c1O` [Compound 33, 2,6-di-tert-butyl-4-[(6-hydroxymethyl-3-pyridazinyl)amino]phenol], the inhibition in vivo at 100 mg/kg under setting [1] came to 46%.

As for `CC(C)(C)c1cc(Nc2nc(-c3ccccc3)ns2)cc(C(C)(C)C)c1O` [Compound 56, 2,6-di-tert-butyl-4-[(3-phenyl-1,2,4-thiadiazol-5-yl)amino]phenol], under setting [1], the inhibition in vivo at 100 mg/kg turned out to be 13%. Turning to `Cc1ccc(Nc2cc(C(C)(C)C)c(O)c(C(C)(C)C)c2)nn1` [Compound 17, 2,6-di-tert-butyl-4-[(6-methyl-3-pyridazinyl)amino]phenol], the inhibition in vivo at 25 mg/kg under setting [1] turned out to be 36%. For the compound `CCOc1ccc(Nc2cc(C(C)(C)C)c(O)c(C(C)(C)C)c2)nn1` [Compound 28, 2,6-di-tert-butyl-4-[(6-ethoxy-3-pyridazinyl)amino]phenol], the inhibition in vivo at 100 mg/kg under setting [1] was 33%. Consider `Cc1sccc1Nc1cc(C(C)(C)C)c(O)c(C(C)(C)C)c1` [Compound 61, 2,6-di-tert-butyl-4-[(2-methyl-3-thienyl)amino]phenol], for which the inhibition in vivo at 50 mg/kg under setting [1] was determined as 25%. Consider `Cc1cnc(Nc2cc(C(C)(C)C)c(O)c(C(C)(C)C)c2)cn1` [Compound 16], for which, under setting [1], the inhibition in vivo at 100 mg/kg was found to be 10%. `CC(C)(C)c1cc(Nc2cncnc2N)cc(C(C)(C)C)c1O` [Compound 22, 2,6-di-tert-butyl-4-[(4-amino-5-pyrimidinyl)amino]phenol]: the inhibition in vivo at 100 mg/kg under setting [1] turned out to be 32%. Turning to `CC(C)(C)c1cc(Nc2ncco2)cc(C(C)(C)C)c1O` [Compound 49, 2,6-di-tert-butyl-4-[(2-oxazolyl)amino]phenol], under setting [1], the inhibition in vivo at 100 mg/kg amounted to 41%. Consider `CC(C)(C)c1cc(Nc2ncc[nH]2)cc(C(C)(C)C)c1O` [Compound 48], for which, under setting [1], the inhibition in vivo at 25 mg/kg was found to be 63%. As for `CC(C)(C)c1cc(Nc2ccc(Cl)nn2)cc(C(C)(C)C)c1O` [Compound 26, 2,6-di-tert-butyl-4-[(6-chloro-3-pyridazinyl)amino]phenol], the inhibition in vivo at 100 mg/kg under setting [1] came to 27%. In the case of `CC(C)c1cc(Nc2cccnn2)cc(C(C)(C)C)c1O` [Compound 10], the inhibition in vivo at 25 mg/kg under setting [1] was found to be 35%. With `COc1ccc2c(c1)c(CC(=O)O)c(C)n2C(=O)c1ccc(Cl)cc1` [Indomethacin, reference compound], under “3 h”, the inhibition in vivo at 5 mg/kg stood at 36%. Regarding `CC(C)(C)c1cc(Nc2cncnc2)cc(C(C)(C)C)c1O` [Compound 15], under setting [1], the inhibition in vivo at 100 mg/kg amounted to 16%.

As for `CC(C)(C)c1cc(Nn2cnnc2)cc(C(C)(C)C)c1O` [Compound 55, 2,6-di-tert-butyl-4-[(1,2,4-triazol-4-yl)amino]phenol], the inhibition in vivo at 100 mg/kg under setting [1] is 23%. As to `CC(C)(C)c1cc(Nc2cccnn2)cc(C(C)(C)C)c1O` [Compound 11, 2,6-di-tert-butyl-4-[(3-pyridazinyl)amino]phenol], under setting [1], the inhibition in vivo at 100 mg/kg amounted to 62%.

Consider `CC(C)c1cc(Nc2cnccn2)cc(C(C)(C)C)c1O` [Compound 4, 2-isopropyl-6-tert-butyl-4-pyrazinylaminophenol], for which the inhibition in vivo at 100 mg/kg under setting [1] worked out at 39%. Same read-out and setting: to `CC(C)(C)c1cc(Nc2cc[nH]n2)cc(C(C)(C)C)c1O` [Compound 34, 2,6-di-tert-butyl-4-(3-pyrazolylamino)phenol] belongs 65%. On to `CC(C)(C)c1cc(Nc2nccnn2)cc(C(C)(C)C)c1O` [Compound 59, 2,6-di-tert-butyl-4-[(1,2,4-triazin-3-yl)amino]phenol], for which, under setting [1], the inhibition in vivo at 50 mg/kg came to 37%. Consider `Cc1nnc(Nc2cc(C(C)(C)C)c(O)c(C(C)(C)C)c2)s1` [Compound 58, 2,6-di-tert-butyl-4-[(5-methyl-1,3,4-thiadiazol-2-yl)amino]pheonl], for which the inhibition in vivo at 100 mg/kg under setting [1] is 30%. Regarding `Cc1ccnc(Nc2cc(C(C)(C)C)c(O)c(C(C)(C)C)c2)n1` [Compound 18, 2,6-di-tert-butyl-4-[(4-methyl-2-pyrimidinyl)amino]phenol], under setting [1], the inhibition in vivo at 50 mg/kg was found to be 36%. Turning to `CC(C)(C)c1cc(Nc2nnc[nH]2)cc(C(C)(C)C)c1O` [Compound 54], the inhibition in vivo at 100 mg/kg under setting [1] worked out at 20%.

For the compound `Cn1nccc1Nc1cc(C(C)(C)C)c(O)c(C(C)(C)C)c1` [Compound 39, 2,6-di-tert-butyl-4-[(2-methyl-3-pyrazolyl)amino]phenol], the inhibition in vivo at 100 mg/kg under setting [1] came to 46%.
